Data as given in the NIST ThermoML archive (doi:10.1016/j.jct.2016.07.008).

Experiment: xn = mol fraction of the nth substance listed
Conditions: Liquid, Vibrating wire viscometry

Cc1ccc(C)c(C)c1 [1,2,4-trimethylbenzene] + CCCCO
viscosity [mPa·s]
Conditions | 293.15 K | 313.15 K | 333.15 K | 353.15 K
100 kPa, x2 = 0.2999 | 1.004 | 0.7478 | 0.5848 | 0.4547
100 kPa, x2 = 0.5289 | 1.227 | 0.8685 | 0.6443 | 0.495
100 kPa, x2 = 0.7991 | 1.959 | 1.254 | 0.8537 | 0.6105
1000 kPa, x2 = 0.2999 | 1.019 | 0.7546 | 0.5927 | 0.4576
1000 kPa, x2 = 0.5289 | 1.228 | 0.8775 | 0.6496 | 0.4993
1000 kPa, x2 = 0.7991 | 1.977 | 1.271 | 0.8605 | 0.618
5000 kPa, x2 = 0.2999 | 1.066 | 0.7792 | 0.6096 | 0.4793
5000 kPa, x2 = 0.5289 | 1.29 | 0.9012 | 0.6816 | 0.5174
5000 kPa, x2 = 0.7991 | 2.057 | 1.332 | 0.8976 | 0.6396
10000 kPa, x2 = 0.2999 | 1.104 | 0.8286 | 0.6356 | 0.4978
10000 kPa, x2 = 0.5289 | 1.348 | 0.9526 | 0.7029 | 0.5381
10000 kPa, x2 = 0.7991 | 2.177 | 1.385 | 0.94 | 0.667
20000 kPa, x2 = 0.2999 | 1.197 | 0.8853 | 0.6805 | 0.5414
20000 kPa, x2 = 0.5289 | 1.462 | 1.029 | 0.753 | 0.5739
20000 kPa, x2 = 0.7991 | 2.381 | 1.506 | 1.026 | 0.7229
30000 kPa, x2 = 0.2999 | 1.292 | 0.9596 | 0.7326 | 0.577
30000 kPa, x2 = 0.5289 | 1.588 | 1.116 | 0.8089 | 0.6155
30000 kPa, x2 = 0.7991 | 2.563 | 1.645 | 1.107 | 0.7805
40000 kPa, x2 = 0.2999 | 1.391 | 1.025 | 0.7951 | 0.6166
40000 kPa, x2 = 0.5289 | 1.73 | 1.201 | 0.8688 | 0.6521
40000 kPa, x2 = 0.7991 | 2.757 | 1.759 | 1.197 | 0.8397
50000 kPa, x2 = 0.2999 | 1.516 | 1.105 | 0.8476 | 0.659
50000 kPa, x2 = 0.5289 | 1.87 | 1.293 | 0.9271 | 0.6945
50000 kPa, x2 = 0.7991 | 2.995 | 1.921 | 1.282 | 0.9004
60000 kPa, x2 = 0.2999 | 1.65 | 1.181 | 0.906 | 0.7031
60000 kPa, x2 = 0.5289 | 2.031 | 1.402 | 0.9904 | 0.7392
60000 kPa, x2 = 0.7991 | 3.241 | 2.046 | 1.379 | 0.9627
70000 kPa, x2 = 0.2999 | 1.804 | 1.271 | 0.9707 | 0.7463
70000 kPa, x2 = 0.5289 | 2.196 | 1.492 | 1.059 | 0.7855
70000 kPa, x2 = 0.7991 | 3.481 | 2.187 | 1.466 | 1.026
80000 kPa, x2 = 0.2999 | 1.938 | 1.357 | 1.03 | 0.7895
80000 kPa, x2 = 0.5289 | 2.401 | 1.612 | 1.131 | 0.8338
80000 kPa, x2 = 0.7991 | 3.754 | 2.342 | 1.577 | 1.092
100000 kPa, x2 = 0.2999 | 2.236 | 1.531 | 1.177 | 0.8968
100000 kPa, x2 = 0.5289 | 2.773 | 1.821 | 1.295 | 0.9482
100000 kPa, x2 = 0.7991 | 4.289 | 2.65 | 1.771 | 1.226
120000 kPa, x2 = 0.2999 | 2.578 | 1.753 | 1.308 | 0.997
120000 kPa, x2 = 0.5289 | 3.261 | 2.065 | 1.453 | 1.062
120000 kPa, x2 = 0.7991 | 4.849 | 2.995 | 1.945 | 1.367
140000 kPa, x2 = 0.2999 | 2.956 | 1.969 | 1.447 | 1.117
140000 kPa, x2 = 0.5289 | 3.719 | 2.367 | 1.615 | 1.194
140000 kPa, x2 = 0.7991 | 5.47 | 3.336 | 2.135 | 1.512
